These results are taken from patent US20260347401A1, “Peptide Fragment And Use Thereof” (TOAGOSEI CO., LTD., priority 2023, published 2026).

The assay has as its system NSC-34 cells. Kind of assay: Evaluation of cell membrane permeability by flow cytometry (fluorescence of FAM taken up by NSC-34 cells). The class given is cell-based, mouse. Particulars: for median fluorescence intensity (MFI): 10 μM in culture solution, 0.50% DMSO, 37 °C, 5% CO2, flow cytometer detector FL2; for median fluorescence intensity (MFI) / MFI compared with Example 3 (FAM): 20 hours; for MFI compared with Example 3 (FAM): 10 μM, result in words; for cell membrane permeability: peptide fragment, tested as FAM construct, conclusion in words. Here is the method:
As the eukaryotic cells, NSC-34 cells (mouse motor neuron-like hybrid cell line) were used and the cell membrane permeability of the prepared construct was evaluated.
The NSC-34 cell was cultured in 10% fetal bovine serum (FBS)-containing Dulbecco's modified Eagle's medium (DMEM (Cat No. 044-29765, manufactured by FUJIFILM Wako Pure Chemical Corporation)), which is a culture medium.
The NSC-34 cell that adhered to a culture plate was cleaned with PBS and then, a 0.25%-trypsin/EDTA solution was added thereto, and incubation was performed for three minutes at 37 °C. After the incubation, the aforementioned 10% FBS-containing DMEM was added to deactivate trypsin and then, five-minute centrifugal separation was performed at 150×g to precipitate the cells. After the supernatant generated by the centrifugal separation was removed, the 10% FBS-containing DMEM was added to the precipitate (cell pellet) to prepare a cell suspension of about 2×10^5 cells/mL. The cell suspension was added by 1 mL to a well of a commercially available six-hole (well) plate (manufactured by AGC TECHNO GLASS Co., Ltd.) so as to seed the cell (about 2×10^5 cells/well), and incubation was caried out for about two to three hours until the cell adhered to a bottom surface of the well. After that, the 2 mM sample solution 1 prepared as above was diluted with the 10% FBS-containing DMEM to prepare the sample solution 1 in which the concentration of the sample was 20 μM. Then, 1 mL of the 20 μM sample solution 1 was added to the well (that is, so that the concentration of the construct 1 became 10 μM and the DMSO concentration became 0.50% in the culture solution in the well). The cell was incubated for 20 hours at 37 °C under a 5% CO2 condition.
After the 20-hour incubation, the culture supernatant was removed from the well and the cells in the well were cleaned twice with 1 mL of PBS. Next, 100 μL of the 0.25% trypsin/EDTA solution was added to the well and the incubation was performed for three minutes at 37 °C. After the incubation, 900 μL of the 10% FBS-containing DMEM was added to the well to deactivate the trypsin. The cell suspension in the well was transferred to a tube and the cells were collected. After that, pre-washing was performed additionally, so that the cells remaining in the well were collected in the tube. This tube was subjected to five-minute centrifugal separation at 4 °C under a condition of 210×g. After the centrifugal separation, the supernatant was removed and the precipitate (cell pellet) was suspended (cleaned) with 1 mL of PBS, which was followed by the centrifugal separation under the same condition as that described above. Then, the supernatant was removed and thus, the cells (cell pellet) cultured in a culture medium containing the sample were obtained.
Regarding the obtained cells (cell pellet), the cell membrane permeability was analyzed using a flow cytometer. As the flow cytometer, On-Chip Flowcytometer (manufactured by On-Chip Biotechnologies Co., LTD.) was used.
For such an analysis, the obtained cell pellet was suspended with 50 μL of on-chip T buffer to prepare a cell suspension for analysis.
Using the aforementioned flow cytometer, gating based on forward scatter (FSC) and side scatter (SSC) was performed to set a gate about a cell group to be analyzed, and the fluorescence intensity was measured about the cell group in this gate. Note that the number of cells of the cell group to be analyzed was set to at least 10000, and the analysis was performed. The fluorescence intensity was measured using a fluorescence detector FL2 of the flow cytometer (optimum detection wavelength around 543 nm) capable of detecting the fluorescence wavelength of FAM. Regarding this measurement result, the analysis was performed using commercially available analysis software “FlowJo” (manufactured by TreeStar) to obtain median fluorescence intensity (MFI) of the cell group to be measured (see Table 1). […]
For orientation: A flow cytometer gives signals particle by particle.

FAM = 5(6)-carboxyfluorescein

Take “5(6)-carboxyfluorescein [Example 3, reference compound]”: the “median fluorescence intensity (MFI)” value was 7.28.
Turning to “Ac-VLSRVQLREKLTR-FAM (Ac-VLSRVQLREKLTR-{FAM}) [Example 2]”, the “median fluorescence intensity (MFI)” value is 31.3 and the “MFI compared with Example 3 (FAM)” value is “higher”.
On the same counts, the results for Ac-VLSRVVQLLREKLTRKK-FAM [Example 1] are 30.4 and “higher”.
Take “VLSRVQLREKLTR [SEQ ID No.: 2, peptide fragment (synthetic peptide) having cell membrane permeability]”: the cell membrane permeability entry is listed as “has the cell membrane permeability”.
Same read-out and setting: the entry for “VLSRVVQLLREKLTRKK [SEQ ID No.: 1, peptide fragment (synthetic peptide) having cell membrane permeability]” is “has the cell membrane permeability”.
